Results: US8535639B2, “Trifunctional imaging agent for monoclonal antibody tumor-targeted imaging” (The United States of America, as represented by the …, priority 2007, dated 2013)

Molecular target: T1, EGFR-expressing A431 cells (Homo sapiens, UniProt P00533)
T1 construct: host or cells: A431 cells
Experiment: Confocal fluorescence microscopy binding
Type: cell-based
Conditions: 10 ug/mL, 2 hr at 37° C.
Protocol: A431, SKOV3, and NIH3T3 cells were obtained from ATCC (Manassas, Va.). The NIH3T3 cells were transfected with HER2 genes (3T3/HER2+), in order to overexpress HER2 receptors (Di Fiore et al., Science 1987, 237, 178-182). All of the cell lines were grown at 37° C. in the presence of 5% CO2 in DMEM medium supplemented with 1% L-glutamine, and 5% FBS. For the confocal fluorescence microscopy experiments cells were plated in Lab-Tek chambered slides (#178599 Nalge Nunc) at an appropriate dilution and allowed to attach overnight at 37° C. prior to treatment. […] The individual cell lines seeded on chambered slides with 60-80% confluency were incubated for 2 hr at 37° C. in the dark. After incubation the cell culture medium was removed and slides were washed three times with PBS (pH=7.4) and immediately fixed in 4% paraformaldehyde prepared in PBS (pH=7.4) for 5 min at room temperature. Fluorescent mounting medium (S3023, DakoCytomation) was added at the time the slide was covered with a cover glass to stabilize the fluorophores before and during confocal microscopy. […] Fluorescence (Cy5.5 or Cy7) and DIC images were collected simultaneously using a 63x Plan-Apochromat 1.4 NA oil immersion objective and a long pass 650 nm emission filter. […]

T1 sequence (P00533 25-1210): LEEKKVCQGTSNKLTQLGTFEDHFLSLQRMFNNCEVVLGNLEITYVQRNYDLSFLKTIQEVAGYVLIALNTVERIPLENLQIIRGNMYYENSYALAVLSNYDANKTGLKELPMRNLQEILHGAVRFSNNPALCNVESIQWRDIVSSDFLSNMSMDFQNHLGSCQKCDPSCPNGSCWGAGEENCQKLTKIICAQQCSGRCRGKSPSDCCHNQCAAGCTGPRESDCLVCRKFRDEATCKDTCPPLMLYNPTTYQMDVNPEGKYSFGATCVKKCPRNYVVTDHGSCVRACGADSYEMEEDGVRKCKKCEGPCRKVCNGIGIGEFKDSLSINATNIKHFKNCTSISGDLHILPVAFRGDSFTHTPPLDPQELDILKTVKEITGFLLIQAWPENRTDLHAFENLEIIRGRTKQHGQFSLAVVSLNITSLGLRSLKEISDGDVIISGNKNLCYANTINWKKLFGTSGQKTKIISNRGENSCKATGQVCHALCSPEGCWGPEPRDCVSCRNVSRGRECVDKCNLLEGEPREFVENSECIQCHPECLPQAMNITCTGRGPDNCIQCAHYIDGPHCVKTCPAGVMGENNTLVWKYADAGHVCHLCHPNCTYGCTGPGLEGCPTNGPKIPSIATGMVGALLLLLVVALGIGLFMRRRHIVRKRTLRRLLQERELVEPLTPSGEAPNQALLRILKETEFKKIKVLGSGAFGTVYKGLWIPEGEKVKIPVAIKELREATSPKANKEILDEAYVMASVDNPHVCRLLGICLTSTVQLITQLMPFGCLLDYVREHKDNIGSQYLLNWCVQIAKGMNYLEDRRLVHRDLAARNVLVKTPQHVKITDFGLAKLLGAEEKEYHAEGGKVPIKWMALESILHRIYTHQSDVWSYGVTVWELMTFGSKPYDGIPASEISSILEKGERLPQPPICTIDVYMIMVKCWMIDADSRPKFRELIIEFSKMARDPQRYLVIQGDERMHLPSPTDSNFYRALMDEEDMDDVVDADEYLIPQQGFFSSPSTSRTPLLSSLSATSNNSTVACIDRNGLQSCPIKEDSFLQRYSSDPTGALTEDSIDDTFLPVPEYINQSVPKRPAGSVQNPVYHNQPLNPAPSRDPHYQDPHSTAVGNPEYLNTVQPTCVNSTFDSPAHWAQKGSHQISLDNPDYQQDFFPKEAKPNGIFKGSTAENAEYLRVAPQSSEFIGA

Question: With `CC[N+]1=C(/C=C/C=C/C=C/C=C2/N(CCCCCC(=O)N[C@@H](CCCCNC(=O)C3CCC(CN4C(=O)CC(SCCCC(=N)NC)C4=O)CC3)C(=O)Nc3ccc(C[C@H](CN(CC(=O)O)[C@H]4CCCC[C@@H]4N(CC(=O)O)CC(=O)O)N(CC(=O)O)CC(=O)O)cc3)c3ccc(S(=O)(=O)O)cc3C2(C)C)C(C)(C)c2cc(S(=O)(=O)[O-])ccc21` (stereo partly shown) [imaging agent 11] as the compound, how does the “binding / fluorescent labeling” value read?
Answer: specifically labels
